Measurements: ChEMBL document CHEMBL1138512, “A class of 2,4-bisanilinopyrimidine Aurora A inhibitors with unusually high selectivity against Aurora B” (J Med Chem, 2009)

What was measured:
Aurora kinase B [1] = target: T1, Aurora kinase B (Homo sapiens, UniProt Q96GD4); experiment: Inhibition of N-terminal flag-tagged Aurora B expressed in Escherichia coli BL21-DE3 by ELISA
HCT-116 = experiment: Antiproliferative activity against human HCT116 cells after 4 days by celltiter assay; format: functional, cell-based; settings: HCT-116, 96 h
[2] = target: Tyrosine-protein kinase ABL1 (Homo sapiens) (UniProt P00519); experiment: Inhibition of ABL1 at 1 uM
[3] = target: RAC-alpha serine/threonine-protein kinase (Homo sapiens) (UniProt P31749); experiment: Inhibition of PKBalpha at 1 uM
[4] = target: ALK tyrosine kinase receptor (Homo sapiens) (UniProt Q9UM73); experiment: Inhibition of ALK at 1 uM
[5] = target: Aurora kinase A (Homo sapiens) (UniProt O14965); experiment: Inhibition of Aurora A at 1 uM
[6] = target: Tyrosine-protein kinase receptor UFO (Homo sapiens) (UniProt P30530); experiment: Inhibition of Axl at 1 uM
[7] = target: Serine/threonine-protein kinase B-raf (Homo sapiens) (UniProt P15056); experiment: Inhibition of BRAF at 1 uM
[8] = target: Tyrosine-protein kinase BTK (Homo sapiens) (UniProt Q06187); experiment: Inhibition of BTK at 1 uM
[9] = target: Calcium/calmodulin-dependent protein kinase type II subunit alpha (Homo sapiens) (UniProt Q9UQM7); experiment: Inhibition of CaMK2alpha at 1 uM
[10] = target: Macrophage colony-stimulating factor 1 receptor (Homo sapiens) (UniProt P07333); experiment: Inhibition of FMS at 1 uM
[11] = target: Casein kinase I isoform gamma-2 (Homo sapiens) (UniProt P78368); experiment: Inhibition of CK1gamma2 at 1 uM
[12] = target: Casein kinase II subunit alpha (Homo sapiens) (UniProt P68400); experiment: Inhibition of CK2alpha1 at 1 uM
[13] = target: Eukaryotic elongation factor 2 kinase (Homo sapiens) (UniProt O00418); experiment: Inhibition of EEF2K at 1 uM
[14] = target: Fibroblast growth factor receptor 1 (Homo sapiens) (UniProt P11362); experiment: Inhibition of FGFR1 at 1 uM
[15] = target: Serine/threonine-protein kinase mTOR (Homo sapiens) (UniProt P42345); experiment: Inhibition of mTOR at 1 uM
[16] = target: Tyrosine-protein kinase JAK2 (Homo sapiens) (UniProt O60674); experiment: Inhibition of JAK2 at 1 uM
[17] = target: Vascular endothelial growth factor receptor 2 (Homo sapiens) (UniProt P35968); experiment: Inhibition of VEGFR2 at 1 uM
[18] = target: MAP kinase-activated protein kinase 2 (Homo sapiens) (UniProt P49137); experiment: Inhibition of MAPKAPK2 at 1 uM
[19] = target: Serine/threonine-protein kinase PAK 3 (Homo sapiens) (UniProt O75914); experiment: Inhibition of PAK3 at 1 uM
[20] = target: Platelet-derived growth factor receptor alpha (Homo sapiens) (UniProt P16234); experiment: Inhibition of PDGFRA at 1 uM
[21] = target: Serine/threonine-protein kinase PLK1 (Homo sapiens) (UniProt P53350); experiment: Inhibition of PLK1 at 1 uM
[22] = target: Serine/threonine-protein kinase PLK3 (Homo sapiens) (UniProt Q9H4B4); experiment: Inhibition of PLK3 at 1 uM
[23] = target: cAMP-dependent protein kinase catalytic subunit alpha (Homo sapiens) (UniProt P17612); experiment: Inhibition of PRKACA at 1 uM
[24] = target: Protein kinase C alpha type (Homo sapiens) (UniProt P17252); experiment: Inhibition of PKCalpha at 1 uM
[25] = target: Rho-associated protein kinase 1 (Homo sapiens) (UniProt Q13464); experiment: Inhibition of ROCK1 at 1 uM
[26] = target: Ribosomal protein S6 kinase alpha-1 (Homo sapiens) (UniProt Q15418); experiment: Inhibition of RSK1 at 1 uM
[27] = target: Proto-oncogene tyrosine-protein kinase Src (Homo sapiens) (UniProt P12931); experiment: Inhibition of SRC at 1 uM
[28] = target: Mitogen-activated protein kinase kinase kinase 9 (Homo sapiens) (UniProt P80192); experiment: Inhibition of MLK1 at 1 uM
[29] = target: 3-phosphoinositide-dependent protein kinase 1 (Homo sapiens) (UniProt O15530); experiment: Inhibition of PDK1 at 1 uM
Aurora kinase B [30] = target: T1, Aurora kinase B; experiment: Inhibition of Aurora B in human HCT116 cells assessed as complete loss of phospho-histone H3 staining by immunofluorescence assay

T1 sequence (Q96GD4 whole entry): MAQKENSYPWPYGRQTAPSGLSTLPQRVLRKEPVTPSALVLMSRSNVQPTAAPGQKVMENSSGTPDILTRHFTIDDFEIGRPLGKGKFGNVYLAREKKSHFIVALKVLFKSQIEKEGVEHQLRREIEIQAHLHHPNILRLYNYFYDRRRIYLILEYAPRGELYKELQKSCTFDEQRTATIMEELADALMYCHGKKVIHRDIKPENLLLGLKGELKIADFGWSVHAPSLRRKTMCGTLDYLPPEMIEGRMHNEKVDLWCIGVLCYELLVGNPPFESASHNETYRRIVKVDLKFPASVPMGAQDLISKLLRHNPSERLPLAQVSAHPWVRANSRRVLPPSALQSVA
Chain of Tyrosine-protein kinase JAK2 (Homo sapiens) (O60674 whole entry): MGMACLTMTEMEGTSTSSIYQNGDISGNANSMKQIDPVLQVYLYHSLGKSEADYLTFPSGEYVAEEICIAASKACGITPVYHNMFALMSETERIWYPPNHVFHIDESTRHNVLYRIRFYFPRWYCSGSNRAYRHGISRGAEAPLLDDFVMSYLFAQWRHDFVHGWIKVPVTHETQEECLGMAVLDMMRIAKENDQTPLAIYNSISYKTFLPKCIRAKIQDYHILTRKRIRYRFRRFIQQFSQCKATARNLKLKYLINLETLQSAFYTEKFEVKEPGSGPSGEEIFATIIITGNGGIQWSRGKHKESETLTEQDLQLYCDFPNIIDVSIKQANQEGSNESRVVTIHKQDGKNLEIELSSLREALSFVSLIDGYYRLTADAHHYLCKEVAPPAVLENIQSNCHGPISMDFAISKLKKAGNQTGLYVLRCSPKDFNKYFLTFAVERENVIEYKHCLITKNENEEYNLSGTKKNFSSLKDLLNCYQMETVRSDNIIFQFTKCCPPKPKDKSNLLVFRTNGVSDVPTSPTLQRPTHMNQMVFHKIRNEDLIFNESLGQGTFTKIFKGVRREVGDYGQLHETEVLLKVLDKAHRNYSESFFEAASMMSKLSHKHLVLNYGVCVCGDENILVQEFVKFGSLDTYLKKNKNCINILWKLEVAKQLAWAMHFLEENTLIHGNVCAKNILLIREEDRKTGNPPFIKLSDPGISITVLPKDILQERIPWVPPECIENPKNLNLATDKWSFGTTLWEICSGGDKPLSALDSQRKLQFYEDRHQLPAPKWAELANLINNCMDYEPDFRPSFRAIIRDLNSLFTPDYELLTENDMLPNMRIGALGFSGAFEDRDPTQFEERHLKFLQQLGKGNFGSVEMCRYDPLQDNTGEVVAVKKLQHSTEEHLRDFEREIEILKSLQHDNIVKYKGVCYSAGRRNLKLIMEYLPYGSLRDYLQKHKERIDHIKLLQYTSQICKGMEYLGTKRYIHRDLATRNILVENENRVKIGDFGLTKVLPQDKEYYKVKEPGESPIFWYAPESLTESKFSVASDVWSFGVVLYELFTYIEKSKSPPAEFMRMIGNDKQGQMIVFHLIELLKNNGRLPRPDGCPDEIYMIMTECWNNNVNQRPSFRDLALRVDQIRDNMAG
Chain of Eukaryotic elongation factor 2 kinase (Homo sapiens) (O00418 whole entry): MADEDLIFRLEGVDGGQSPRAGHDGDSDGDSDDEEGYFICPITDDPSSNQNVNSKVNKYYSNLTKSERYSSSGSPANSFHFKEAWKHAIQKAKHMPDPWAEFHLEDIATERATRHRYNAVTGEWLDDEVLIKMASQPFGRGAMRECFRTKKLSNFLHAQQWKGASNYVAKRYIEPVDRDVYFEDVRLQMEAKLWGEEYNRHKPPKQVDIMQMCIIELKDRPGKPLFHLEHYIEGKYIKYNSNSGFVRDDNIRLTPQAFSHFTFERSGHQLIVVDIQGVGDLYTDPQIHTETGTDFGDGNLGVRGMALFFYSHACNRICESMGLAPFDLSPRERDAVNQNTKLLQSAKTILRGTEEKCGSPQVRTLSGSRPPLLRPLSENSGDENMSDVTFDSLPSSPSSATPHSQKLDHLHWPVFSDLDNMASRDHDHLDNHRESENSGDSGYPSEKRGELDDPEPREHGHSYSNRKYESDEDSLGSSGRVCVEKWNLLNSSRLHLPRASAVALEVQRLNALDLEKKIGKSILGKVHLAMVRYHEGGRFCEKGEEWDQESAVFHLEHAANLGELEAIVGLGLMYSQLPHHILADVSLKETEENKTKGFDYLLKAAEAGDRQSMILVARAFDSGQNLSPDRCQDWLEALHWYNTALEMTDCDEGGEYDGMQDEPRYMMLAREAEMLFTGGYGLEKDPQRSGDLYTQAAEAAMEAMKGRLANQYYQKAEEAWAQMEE
Chain of Casein kinase II subunit alpha (Homo sapiens) (P68400 whole entry, looked up): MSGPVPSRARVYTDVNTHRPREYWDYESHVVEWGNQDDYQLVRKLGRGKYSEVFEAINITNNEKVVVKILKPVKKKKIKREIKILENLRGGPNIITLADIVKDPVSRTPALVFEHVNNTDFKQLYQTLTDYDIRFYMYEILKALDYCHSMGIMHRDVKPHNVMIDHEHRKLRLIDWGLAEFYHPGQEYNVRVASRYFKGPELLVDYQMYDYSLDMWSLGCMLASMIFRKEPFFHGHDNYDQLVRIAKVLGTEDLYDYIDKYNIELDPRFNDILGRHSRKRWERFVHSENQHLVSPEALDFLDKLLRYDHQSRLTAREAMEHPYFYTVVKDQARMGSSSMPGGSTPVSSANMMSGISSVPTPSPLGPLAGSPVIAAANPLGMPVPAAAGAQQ
Chain of Platelet-derived growth factor receptor alpha (Homo sapiens) (P16234 whole entry): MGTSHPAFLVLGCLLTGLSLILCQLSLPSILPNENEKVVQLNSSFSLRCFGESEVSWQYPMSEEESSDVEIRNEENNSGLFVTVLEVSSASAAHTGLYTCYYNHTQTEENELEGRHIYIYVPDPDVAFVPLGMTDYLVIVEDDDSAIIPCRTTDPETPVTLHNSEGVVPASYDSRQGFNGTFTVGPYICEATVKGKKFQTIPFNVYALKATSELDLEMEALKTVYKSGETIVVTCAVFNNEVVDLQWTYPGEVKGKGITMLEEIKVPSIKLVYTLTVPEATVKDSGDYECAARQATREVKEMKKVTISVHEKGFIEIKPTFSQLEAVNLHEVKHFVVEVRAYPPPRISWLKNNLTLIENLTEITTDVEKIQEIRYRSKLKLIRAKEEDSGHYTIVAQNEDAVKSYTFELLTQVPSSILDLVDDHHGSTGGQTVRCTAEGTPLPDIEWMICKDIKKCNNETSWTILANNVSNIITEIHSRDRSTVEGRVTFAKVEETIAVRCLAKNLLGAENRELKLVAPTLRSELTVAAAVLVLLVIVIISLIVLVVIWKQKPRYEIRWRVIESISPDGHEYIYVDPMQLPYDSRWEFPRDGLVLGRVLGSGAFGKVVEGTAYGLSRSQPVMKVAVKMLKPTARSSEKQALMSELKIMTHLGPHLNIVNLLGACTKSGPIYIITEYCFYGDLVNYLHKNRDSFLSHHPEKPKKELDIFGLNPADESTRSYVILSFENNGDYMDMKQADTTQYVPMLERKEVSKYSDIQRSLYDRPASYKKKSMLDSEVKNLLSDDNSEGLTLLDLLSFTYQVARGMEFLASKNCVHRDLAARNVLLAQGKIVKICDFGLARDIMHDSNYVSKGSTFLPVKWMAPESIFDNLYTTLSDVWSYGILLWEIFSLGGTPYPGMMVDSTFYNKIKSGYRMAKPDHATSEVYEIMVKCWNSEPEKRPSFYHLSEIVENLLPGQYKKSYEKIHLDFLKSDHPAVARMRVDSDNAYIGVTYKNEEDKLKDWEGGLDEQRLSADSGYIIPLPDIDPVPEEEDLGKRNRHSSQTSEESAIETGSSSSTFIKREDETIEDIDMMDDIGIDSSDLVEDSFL
Chain of Macrophage colony-stimulating factor 1 receptor (Homo sapiens) (P07333 whole entry, canonical isoform): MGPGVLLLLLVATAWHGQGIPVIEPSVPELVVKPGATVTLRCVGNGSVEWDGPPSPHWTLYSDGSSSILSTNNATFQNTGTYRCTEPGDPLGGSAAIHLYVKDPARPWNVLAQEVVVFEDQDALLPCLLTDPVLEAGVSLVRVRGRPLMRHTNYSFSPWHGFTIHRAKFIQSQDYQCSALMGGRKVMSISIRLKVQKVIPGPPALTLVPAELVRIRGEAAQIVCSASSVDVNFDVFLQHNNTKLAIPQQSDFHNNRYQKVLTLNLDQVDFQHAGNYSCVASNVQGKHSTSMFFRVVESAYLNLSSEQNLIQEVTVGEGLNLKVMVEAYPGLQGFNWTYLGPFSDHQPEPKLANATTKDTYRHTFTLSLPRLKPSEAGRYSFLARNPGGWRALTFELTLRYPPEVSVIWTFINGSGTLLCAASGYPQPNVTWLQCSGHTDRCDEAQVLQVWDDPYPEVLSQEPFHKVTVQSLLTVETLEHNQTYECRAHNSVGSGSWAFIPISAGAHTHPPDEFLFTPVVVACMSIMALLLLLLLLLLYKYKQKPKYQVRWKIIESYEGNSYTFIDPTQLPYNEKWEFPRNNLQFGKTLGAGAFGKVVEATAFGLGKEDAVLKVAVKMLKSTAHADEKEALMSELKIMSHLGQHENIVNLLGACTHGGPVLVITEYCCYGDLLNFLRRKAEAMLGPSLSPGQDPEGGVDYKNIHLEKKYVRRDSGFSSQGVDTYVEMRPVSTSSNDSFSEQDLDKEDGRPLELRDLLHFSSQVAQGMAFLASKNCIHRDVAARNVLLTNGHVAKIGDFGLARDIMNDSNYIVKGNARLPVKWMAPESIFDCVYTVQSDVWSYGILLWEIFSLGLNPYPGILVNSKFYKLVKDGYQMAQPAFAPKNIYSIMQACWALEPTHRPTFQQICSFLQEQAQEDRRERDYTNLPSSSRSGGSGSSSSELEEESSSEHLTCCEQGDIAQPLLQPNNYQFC
Chain of Aurora kinase A (Homo sapiens) (O14965 whole entry): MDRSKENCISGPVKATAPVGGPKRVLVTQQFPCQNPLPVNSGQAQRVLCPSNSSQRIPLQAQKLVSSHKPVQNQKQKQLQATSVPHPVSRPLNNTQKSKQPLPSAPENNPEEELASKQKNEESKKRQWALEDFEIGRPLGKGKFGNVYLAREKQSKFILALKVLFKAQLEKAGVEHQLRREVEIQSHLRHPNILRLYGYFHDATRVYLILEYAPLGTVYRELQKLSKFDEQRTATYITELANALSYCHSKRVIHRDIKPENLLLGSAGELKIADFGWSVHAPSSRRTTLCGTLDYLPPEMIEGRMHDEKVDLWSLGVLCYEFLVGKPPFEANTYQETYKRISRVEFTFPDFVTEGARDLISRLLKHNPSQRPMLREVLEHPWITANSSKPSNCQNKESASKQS

IC50 (Aurora kinase B [1]): 3.7 µM | IC50 (HCT-116): 0.64 µM | inhibition [2]: 33% | inhibition [3]: 11% | inhibition [4]: 21% | inhibition [5]: 103% | inhibition [6]: 46% | inhibition [7]: 7% | inhibition [8]: 46% | inhibition [9]: 9% | inhibition [10]: 79% | inhibition [11]: 10% | inhibition [12]: 16% | inhibition [13]: 5% | inhibition [14]: 16% | inhibition [15]: 11% | inhibition [16]: 78% | inhibition [17]: 76% | inhibition [18]: 9% | inhibition [19]: 4% | inhibition [20]: 23% | inhibition [21]: 3% | inhibition [22]: -3% | inhibition [23]: 7% | inhibition [24]: 15% | inhibition [25]: -8% | inhibition [26]: 23% | inhibition [27]: 30% | inhibition [28]: 41% | inhibition [29]: 19% | IC50 (Aurora kinase B [30]): > 25 µM
Compound: CC(=O)N1CCN(C(=O)Cc2ccc(Nc3ncc(F)c(Nc4ccc(C(=O)Nc5ccccc5Cl)cc4)n3)cc2)CC1
